{"source": "patent US8946201B2", "about": "“Methods for inhibiting TGF-β” (Saint Louis University, priority 2007, dated 2015)", "key": {"TβR-I and TβR-II [1]": {"test_system": "TβR-I and TβR-II", "assay": "125I-TGF-β1 affinity labeling, BAEC", "assay_type": "cell-based, bovine", "experimental": "(B, C, D, E) Cells were treated with increasing concentrations of cholesterol in the presence (C) and absence (B, D, E) of 0.2% β-CD, as indicated. After 1 hr at 37° C., ^125I-TGF-β1 affinity labeling of TβR-I and TβR-II in cells was performed at 0° C. ^125I-TGF-β1 affinity-labeled TβR-I and TβR-II were analyzed by 7.5% SDS-PAGE and autoradiography or quantified with a PhosphoImager. A representative of a total of three analyses is shown (top). The bracket indicates the locations of ^125I-TGF-β affinity-labeled TβR-I and TβR-II. The relative intensities of ^125I-TGF-β1 affinity-labeled TβR-I and TβR-II in cells treated without cholesterol were taken as 100%. The quantitative data from three analyses is shown (bottom).\n(§1) (A, B, C, D, E, F) Cells were treated with LDL (50 μg protein/ml), VLDL (5 μg protein/ml), HDL (50 μg protein/ml), lipoprotein (a) (10 μg/ml), fluvastatin (F; 1 μM), lovastatin (L; 1 μM), nystatin (Nys; 25 μg/ml), β-CD (β-CD; 8 mM), cholest-4-en-3-one (3-one; 50 μg/ml) or cholesterol (Chol; 50 μg/ml) alone or combination of two. After 1 hr at 37° C. or 16 hr at 37° C. (for fluvastatin and lovastatin), ^125I-TGF-β1 affinity labeling of cell-surface TGF-β receptors was performed at 0° C. ^125I-TGF-β1 affinity-labeled TβR-I and TβR-II were analyzed by 7.5% SDS-PAGE and autoradiography. The relative intensities of TβR-I and TβR-II were quantified with a PhosphoImager. The ratio of ^125I-TGF-β1 binding to TβR-II and TβR-I were estimated. The numbers above the lane sequence denote the ratio of TβR-II/TβR-I.\n(§2) After cross-linking, cell lysates were analyzed by 7.5% SDS-PAGE and autoradiography or quantified by a PhosphoImager. For all experiments, cholesterol or cholesterol derivatives were prepared as the stock solution with a concentration of 25 mg/ml in ethanol. The final concentration of ethanol in the medium was 0.2% (by vol.)."}, "Mv1Lu cells": {"test_system": "Mv1Lu cells", "assay": "Cell viability under the experimental conditions, Mv1Lu cells", "assay_type": "cell-based, mink", "details": "conditions of the thymidine incorporation or affinity labeling experiment", "experimental": "The growth of cholesterol-treated cells was determined by measurement of [methyl-^3H]thymidine incorporation into cellular DNA as described (30). Briefly, cells grown near confluence on 48-well clustered dishes were treated with several concentrations of cholesterol at 37° C. for 1 hr in serum-free DMEM. The final concentration of ethanol (the vehicle for cholesterol) in the medium was 0.2%. Treated cells were then incubated with 0.0625 pM or 0.125 pM of TGF-β1 in DMEM containing 0.1% fetal calf serum at 37° C. for 18 hr. The [methyl-^3H]thymidine incorporation into cellular DNA was then determined by incubation of cells with [methyl-^3H]thymidine at 37° C. for 2 hr in DMEM containing 0.1% fetal calf serum. The optimal concentrations of TGF-β1 to inhibit cell growth are in the range of 0.1 to 1 pM.\nTo define the specificity of the cholesterol effect, we determined the effects of cholesterol analogs and derivatives on ^125I-TGF-β1 binding to TβR-I and TβR-II in Mv1Lu cells. These cells were treated with 50 μg/ml of cholesterol or related oxysterol derivatives (25-hydroxycholesterol, 7-dehydrocholesterol (7-DHC), oxidized 7-DHC (oxy-7-DHC), cholest-5-en-7-one, 7-ketocholesterol, 7β,8β-epoxycholestanol, and 7β-hydroxycholesterol) at 37° C. for 1 hr. ^125I-TGF-β1 binding to TGF-β receptors was then determined by affinity labeling."}, "TβR-I and TβR-II [2]": {"test_system": "TβR-I and TβR-II", "assay": "125I-TGF-β1 affinity labeling, CHO-K1 cells", "assay_type": "cell-based, Chinese hamster", "details": "1 μM, 37° C. 16 hr, 0.12 untreated", "experimental": "as §1\nas §2, with “vol.). […]” for “vol.).”"}}, "data": [{"smiles": "CC(C)CCC[C@@H](C)[C@H]1CC[C@H]2[C@@H]3CC=C4C[C@@H](O)CC[C@]4(C)[C@H]3CC[C@]12C", "note": "[cholesterol]", "values": [{"measurement": "increase of 125I-TGF-β1 binding to TβR-I", "setting": "TβR-I and TβR-II [1]; 50 μg/ml, 1 hr, BAEC", "value": "~2.5", "unit": "fold"}, {"measurement": "ratio of TβR-II/TβR-I", "setting": "TβR-I and TβR-II [1]; 50 μg/ml, 1 hr, BAEC, 3.5 untreated", "value": 1.4}, {"measurement": "effect on binding of 125I-TGF-β1 to TβR-II", "setting": "TβR-I and TβR-II [1]; increasing concentrations, 1 hr, BAEC", "value": "did not significant alter"}, {"measurement": "effect on cell viability", "setting": "Mv1Lu cells", "value": "did not appear to affect"}]}, {"smiles": "CC[C@H](C)C(=O)O[C@H]1C[C@@H](C)C=C2C=C[C@H](C)[C@H](CC[C@@H]3C[C@@H](O)CC(=O)O3)[C@H]21", "note": "[lovastatin, reference compound]", "values": [{"measurement": "ratio of TβR-II/TβR-I", "setting": "TβR-I and TβR-II [1]; 1 μM, 37° C. 16 hr, BAEC cells, 2.47 untreated", "value": 2.6}, {"measurement": "ratio of TβR-II/TβR-I", "setting": "TβR-I and TβR-II [2]", "value": 0.18}]}]}
